We go through two compounds from publication PMC2099433, “The binding site for neohesperidin dihydrochalcone at the human sweet taste receptor” (BMC Structural Biology, 2007).

Usually EC50 stands for the midpoint of the concentration-response curve.

Where a chain is given by its changes, count along the chain named. Read-outs that look alike come from different tables or passages of the source. Where a SMILES comes first, the peptide text is derived from it.

The target of experiment [1] is T1, hTAS1R2 + hTAS1R3 R790Q^ex3 (Homo sapiens, UniProt Q7RTX0+Q8TE23, R790Q).
T1 construct: expressed in transfected cells; host or cells: HEK293T cells stably expressing G16Gust44
T1 sequence (Q8TE23 20-839): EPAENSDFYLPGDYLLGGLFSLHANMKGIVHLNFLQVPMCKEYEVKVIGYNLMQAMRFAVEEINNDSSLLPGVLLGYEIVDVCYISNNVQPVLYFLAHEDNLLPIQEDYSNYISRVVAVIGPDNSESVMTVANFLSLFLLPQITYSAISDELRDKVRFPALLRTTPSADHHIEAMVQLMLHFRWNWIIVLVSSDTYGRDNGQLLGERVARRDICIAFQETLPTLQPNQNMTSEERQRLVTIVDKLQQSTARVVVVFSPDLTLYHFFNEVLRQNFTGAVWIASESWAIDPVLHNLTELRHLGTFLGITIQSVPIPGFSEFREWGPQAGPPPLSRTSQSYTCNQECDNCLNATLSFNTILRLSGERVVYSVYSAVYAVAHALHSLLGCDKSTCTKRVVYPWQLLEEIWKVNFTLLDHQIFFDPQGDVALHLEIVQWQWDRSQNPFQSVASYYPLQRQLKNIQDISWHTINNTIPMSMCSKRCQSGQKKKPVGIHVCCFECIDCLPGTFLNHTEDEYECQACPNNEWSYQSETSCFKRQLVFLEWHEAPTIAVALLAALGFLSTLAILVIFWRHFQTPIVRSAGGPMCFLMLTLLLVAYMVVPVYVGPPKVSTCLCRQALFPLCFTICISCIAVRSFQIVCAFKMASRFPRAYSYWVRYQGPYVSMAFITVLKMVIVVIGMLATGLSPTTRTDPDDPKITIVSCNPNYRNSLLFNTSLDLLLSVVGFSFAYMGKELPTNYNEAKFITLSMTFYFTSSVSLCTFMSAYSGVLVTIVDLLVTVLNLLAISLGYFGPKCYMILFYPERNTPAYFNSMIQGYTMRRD
T1 sequence (Q7RTX0 21-852 R790Q): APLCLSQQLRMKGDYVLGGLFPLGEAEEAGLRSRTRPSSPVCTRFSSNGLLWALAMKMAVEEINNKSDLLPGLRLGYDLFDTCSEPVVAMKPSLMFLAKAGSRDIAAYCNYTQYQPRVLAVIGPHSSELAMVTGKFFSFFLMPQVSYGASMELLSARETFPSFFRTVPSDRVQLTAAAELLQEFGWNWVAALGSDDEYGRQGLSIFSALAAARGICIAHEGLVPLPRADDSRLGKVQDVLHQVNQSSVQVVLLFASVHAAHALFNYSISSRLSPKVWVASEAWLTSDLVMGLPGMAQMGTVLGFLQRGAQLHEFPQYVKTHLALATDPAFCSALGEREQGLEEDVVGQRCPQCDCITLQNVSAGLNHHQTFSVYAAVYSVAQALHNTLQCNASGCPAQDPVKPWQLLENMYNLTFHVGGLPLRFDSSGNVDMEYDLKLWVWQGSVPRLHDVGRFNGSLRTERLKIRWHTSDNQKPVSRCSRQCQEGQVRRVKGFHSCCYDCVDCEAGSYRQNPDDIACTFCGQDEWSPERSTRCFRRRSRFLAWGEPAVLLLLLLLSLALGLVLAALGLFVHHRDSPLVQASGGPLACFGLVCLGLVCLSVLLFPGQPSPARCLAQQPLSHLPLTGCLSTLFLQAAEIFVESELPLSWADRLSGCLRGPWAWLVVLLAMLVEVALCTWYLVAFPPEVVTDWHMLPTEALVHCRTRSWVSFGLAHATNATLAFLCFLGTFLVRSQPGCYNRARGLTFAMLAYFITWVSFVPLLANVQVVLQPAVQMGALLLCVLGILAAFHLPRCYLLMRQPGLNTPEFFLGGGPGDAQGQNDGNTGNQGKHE
Description: Calcium response (FLIPR), hTAS1R3 mutant coexpressed with hTAS1R2. The experiment is classed as cell-based. To be noted: variant R790Q^ex3; for Emax: read-out: maximal signal (% of wt). Summed up: (§1)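 HEK293T cells stably expressing chimeric G16Gust44 were transiently transfected with C-terminally HSV-tagged hTAS1R2 and mutant hTAS1R3, then loaded 24 h later with Fluo4-AM for 1 h. Calcium mobilization after sweet-tastant application was read by FLIPR, mock-corrected and expressed as ΔF/F.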

For experiment [2], the target named is T2, hTAS1R2 + hTAS1R3 G804V^7.42 (Homo sapiens, UniProt Q7RTX0+Q8TE23, G804V).
T2 construct: expressed in transfected cells; host or cells: HEK293T cells stably expressing G16Gust44
T2 sequence (Q7RTX0 21-852 G804V): T1 sequence (Q7RTX0 21-852 R790Q) with Q770R, G784V
T2 sequence (Q8TE23 20-839): T1 sequence (Q8TE23 20-839)
Described as above. The class given is cell-based. To be noted: for EC50: n.r. = no response to NHDC up to highest tested concentration (6 mM), but responses to other sweeteners. Summed up: as §1

As for `COc1ccc(CCC(=O)c2c(O)cc(O[C@@H]3O[C@H](CO)[C@@H](O)[C@H](O)[C@H]3O[C@@H]3O[C@@H](C)[C@H](O)[C@@H](O)[C@H]3O)cc2O)cc1O` [NHDC, neohesperidin dihydrochalcone], the EC50 was 100 ± 60 µM in experiment [1] and “n.r” in experiment [2] (variant G804V^7.42). In addition, the Emax in experiment [1] stood at 77 ± 15%. Further, the receptor response entry in experiment [2] (mutant G804V^7.42, any tested concentration) is “did not respond to NHDC at any tested concentration”.
Consider `COC(=O)[C@H](Cc1ccccc1)NC(=O)[C@@H](N)CC(=O)O` [aspartame] (HELM PEPTIDE1{D.F.[CO[*:1]]}$$$$V2.0), for which the 50% effective concentration (EC50) in experiment [1] stood at 900 ± 400 µM; in experiment [2] (variant G804V^7.42, read-out: EC50) it was 1300 ± 300 µM. The Emax in experiment [1] was 71 ± 30%; in experiment [2] (variant G804V^7.42, read-out: maximal signal (% of wt)), 21 ± 2%.
